# Measured values reported in patent publication US8921360B2, “Heterobicycle-substituted azolyl benzene fungicides” (priority 2009, dated 2014).
# How the values were obtained:
# [1] = tested on: Puccinia recondita f sp. tritici; test: Test B: wheat leaf rust, preventive spray on wheat seedlings; format: in vivo; details: Puccinia recondita, 192 h, wheat seedlings sprayed to run-off, inoculated next day, rated after 24 h + 7 days, read-out: Percentage Disease Control Test B
# Description: General protocol for preparing test suspensions for Tests A-G: the test compounds were first dissolved in acetone in an amount equal to 11% of the final volume and then suspended at the desired concentration (in ppm) in acetone and purified water (50/50 mix by volume) containing 250 ppm of the surfactant Trem® 014 (polyhydric alcohol esters). The resulting test suspensions were then used in Tests A-G. Spraying a 200 ppm test suspension to the point of run-off on the test plants was the equivalent of a rate of 800 g/ha. The test suspension was sprayed to the point of run-off on wheat seedlings. The following day the seedlings were inoculated with a spore suspension of Puccinia recondita f sp. tritici (the causal agent of wheat leaf rust) and incubated in a saturated atmosphere at 20° C. for 24 h, and then moved to a growth chamber at 20° C. for 7 days, after which time disease ratings were visually made. Results for Tests A-G are given in Table A. In the Table, a rating of 100 indicates 100% disease control and a rating of 0 indicates no disease control (relative to the controls). A dash (-) indicates no test results. All results are for 200 ppm except where followed by an “*”, which indicates 40 ppm.
# [2] = tested on: Botrytis cinerea; test: Test F: tomato botrytis, preventive spray on tomato seedlings; format: in vivo; details: Botrytis cinerea, topical, 120 h, tomato seedlings sprayed to run-off, inoculated next day, rated after 48 h + 3 days, read-out: Percentage Disease Control Test F
# Description: General protocol for preparing test suspensions for Tests A-G: the test compounds were first dissolved in acetone in an amount equal to 11% of the final volume and then suspended at the desired concentration (in ppm) in acetone and purified water (50/50 mix by volume) containing 250 ppm of the surfactant Trem® 014 (polyhydric alcohol esters). The resulting test suspensions were then used in Tests A-G. Spraying a 200 ppm test suspension to the point of run-off on the test plants was the equivalent of a rate of 800 g/ha. The test suspension was sprayed to the point of run-off on tomato seedlings. The following day the seedlings were inoculated with a spore suspension of Botrytis cinerea (the causal agent of tomato botrytis) and incubated in saturated atmosphere at 20° C. for 48 h, and then moved to a growth chamber at 27° C. for 3 additional days, after which time disease ratings were visually made. Results for Tests A-G are given in Table A. In the Table, a rating of 100 indicates 100% disease control and a rating of 0 indicates no disease control (relative to the controls). A dash (-) indicates no test results. All results are for 200 ppm except where followed by an “*”, which indicates 40 ppm.
Structure (SMILES),melting point [°C],pest or weed control at 200 ppm [1] [%],pest or weed control at 200 ppm [2] [%]
"CC(=O)NCc1cc(-c2ccn(-c3ccc4c(c3)CCCO4)n2)ccc1Cl [Compound 2, N-[[2-chloro-5-[1-(3,4-dihydro-2H-1-benzopyran-6-yl)-1H-pyrazol-3-yl]-phenyl]methyl]acetamide]",,100,0
"O=CNCc1cc(-c2ccn(-c3ccc4c(c3)CCCO4)n2)ccc1Cl [Compound 3, N-[[2-chloro-5-[1-(3,4-dihydro-2H-1-benzopyran-6-yl)-1H-pyrazol-3-yl]-phenyl]methyl]formamide]",,97,0
"CNC(=O)NCc1cc(-c2ccn(-c3ccc4c(c3)CCCO4)n2)ccc1Cl [Compound 4, N-[[2-chloro-5-[1-(3,4-dihydro-2H-1-benzopyran-6-yl)-1H-pyrazol-3-yl]-phenyl]methyl]-N′-methylurea]",,97,0
"COC(=O)NCc1cc(-n2ccc(-c3ccc4c(c3)CCCO4)n2)ccc1Cl [Compound 5, methyl N-[[2-chloro-5-[3-(3,4-dihydro-2H-1-benzopyran-6-yl)-1H-pyrazol-1-yl]phenyl]methyl]carbamate]",,100,98
"COC(=O)NCc1cc(-n2ccc(-c3ccc4c(c3)OCO4)n2)ccc1Cl [Compound 6, methyl N-[[5-[3-(1,3-benzodioxol-5-yl)-1H-pyrazol-1-yl]-2-chlorophenyl]-methyl]carbamate]",,100,91
"COC(=O)NCc1cc(-n2ccc(-c3ccc4c(c3)OCCO4)n2)ccc1Cl [Compound 7, methyl N-[[2-chloro-5-[3-(2,3-dihydro-1,4-benzodioxin-6-yl)-1H-pyrazol-1-yl]-phenyl]methyl]carbamate]",,100,98
"CC(=O)NCc1cc(-n2ccc(-c3ccc4c(c3)CCCO4)n2)ccc1Cl [Compound 8, N-[[2-chloro-5-[3-(3,4-dihydro-2H-1-benzopyran-6-yl)-1H-pyrazol-1-yl]phenyl]methyl]acetamide]",,100,73
"CNC(=O)NCc1cc(-n2ccc(-c3ccc4c(c3)CCCO4)n2)ccc1Cl [Compound 9, N-[[2-chloro-5-[3-(3,4-dihydro-2H-1-benzopyran-6-yl)-1H-pyrazol-1-yl]phenyl]methyl]-N′-methylurea]",,88,0

# Second part, led by results:
melting point [°C],Structure (SMILES),pest or weed control at 200 ppm [1] [%],pest or weed control at 200 ppm [2] [%]
140 to 144,"COC(=O)NCc1cc(-n2ccc(-c3ccc4c(c3)CCCO4)n2)ccc1F [Compound 11, methyl N-[[5-[3-(3,4-dihydro-2H-1-benzopyran-6-yl)-1H-pyrazol-1-yl]-2-fluorophenyl]methyl]carbamate]",100,0
134 to 138,"COC(=O)NCc1cc(-c2ccn(-c3ccc4c(c3)CCCO4)n2)ccc1F [Compound 12, methyl N-[[5-[1-(3,4-dihydro-2H-1-benzopyran-6-yl)-1H-pyrazol-3-yl]-2-fluorophenyl]methyl]carbamate]",100,0
161 to 162,"COC(=O)NCc1cc(-c2ccn(-c3ccc4c(c3)CCCO4)n2)ccc1C [Compound 20, methyl N-[[5-[1-(3,4-dihydro-2H-1-benzopyran-6-yl)-1H-pyrazol-3-yl]-2-methylphenyl]methyl]carbamate]",100,95
185 to 187,"COC(=O)NCc1cc(-c2ccn(-c3ccc4c(c3)C=C(C(=O)OC)CO4)n2)ccc1Cl [Compound 23, methyl 6-[3-[4-chloro-3-[[(methoxycarbonyl)amino]methyl]phenyl]-1H-pyrazol-1-yl]-2H-1-benzopyran-3-carboxylate]",94,0
245 to 247,"COC(=O)NCc1cc(-c2ccn(-c3ccc4c(c3)C=C(C(=O)O)CO4)n2)ccc1Cl [Compound 24, 6-[3-[4-chloro-3-[[(methoxycarbonyl)amino]methyl]phenyl]-1H-pyrazol-1-yl]-2H-1-benzopyran-3-carboxylic acid]",96,0
152 to 154,"COC(=O)NCc1cc(-n2ccc(-c3ccc4c(c3)CCCO4)n2)ccc1C [Compound 25, methyl N-[[5-[3-(3,4-dihydro-2H-1-benzopyran-6-yl)-1H-pyrazol-1-yl]-2-methylphenyl]methyl]carbamate]",100,0
70 to 73,"COC(=O)NCc1cc(-c2ccn(-c3ccc4c(c3)CC3(CO4)OCCO3)n2)ccc1Cl [Compound 28, methyl N-[[2-chloro-5-(1-spiro[2H-1-benzopyran-3(4H), 2′-[1,3]dioxolan]-6-yl-1H-pyrazol-3-yl)phenyl]methyl]carbamate]",100,0
104 to 106,"COC(=O)NCc1cc(-c2ccn(-c3ccc4c(c3)CC(=O)CO4)n2)ccc1Cl [Compound 29, methyl N-[[2-chloro-5-[1-(3,4-dihydro-3-oxo-2H-1-benzopyran-6-yl)-1H-pyrazol-3-yl]phenyl]methyl]carbamate]",99,0
136 to 138,"COC(=O)NCc1cc(-c2ccn(-c3ccc4c(c3)CC(O)CO4)n2)ccc1Cl (stereo not shown) [Compound 30, methyl N-[[2-chloro-5-[1-(3,4-dihydro-3-hydroxy-2H-1-benzopyran-6-yl)-1H-pyrazol-3-yl]phenyl]methyl]carbamate]",100,0
